Legend:
[1] = system: USP25-MDC1 interaction; assay: Co-IP of USP25-MDC1 interaction after DNA damage; assay type: cell-based; details: 5-Fu (20 uM), HEK293T and RKO
Method: USP25 was immunoprecipitated and immunoblotted with p‐SQ/TQ. d) USP25 knockdowm U2OS cells rescued with USP25WT or USP25T523A were treated with IR (2 Gy), and co‐localization USP25 with γH2AX was detected by immunofluorescence. n>80 in each group. e) HEK293T cells were left untreated or treated with 5‐Fu (20 uM). MDC1 was immunoprecipitated and immunoblotted with USP25. f) HEK293T cells transfected with USP25 were treated with 5‐Fu (20 uM), and cell lysates were incubated with GST or GST‐MDC1 deletions in vitro. […] The interaction USP25 and MDC1‐BRCT was detected. h) Non‐phosphorylated or phosphorylated Thr523 peptide was conjugated to beads and incubated with purified GST‐MDC1‐BRCT domain in buffer.
Flag was immunoprecipitated and immunoblotted with indicated antibodies. c-d) RKO cells were left untreated or treated with 5-Fu (20uM)(c) or IR(10Gy)(d). […] The interaction USP25 and MDC1-BRCT was detected.

[2] = system: RKO cells; assay: CCK8 survival assay, control, USP25 knockdown and SHLD2-depleted RKO cells; assay type: cell-based; details: 5-Fu (0, 0.1, 0.5, 1, 3 µM) or cisplatin (0, 0.1, 0.5, 1, 2, 5 µM)
Method: For long‐term proliferation, cells were seeded in triplicate in each well of 96‐well plates at a density of 1000 cells per well. After 24 h of culture, the cells were treated with the indicated doses of regents or peptides and incubated at 37 °C for 72 h. Subsequently, the medium was changed to a fresh medium containing cell counting kit‐8 solution (Dojindo, CK04), and the cells were placed in the incubator for an additional 1–2 h. The absorbance was measured at 450 nm using the SpectraMax M5 reader (Molecular Devices).
a) HEK293T cells stably expressing control or USP25 shRNA were untreated and treaded with etopside at the indicated time point. Cells were lysed and lysates was performed with the indicated antibodies. b-c) Representative foci images and quantification of RPA32 (b) and RAD51 (c) were obtained in U2OS cells stably expressing control or USP25 shRNA with or without IR treatment (2Gy). n>80 in each group. d) USP25 was knocked down in ER-AsiSI U2OS cells by shRNA, and cell lysates were analyzed using the indicated antibodies. e) Schematic representation of Taqman qPCR primer design for measurement of DSB% at AsiSI sites located on chromosome1(Chr.1). The primer pairs of DNA resection are across BamHI restriction sites are marked by red arrows. ER-AsiSI U2OS cells stably expressing control and USP25 shRNA were treated with 300 nM 4- hydroxytamoxifen (4-OHT) for 4 h or mock treated and genomic DNA was then extracted and digested with BamHI overnight. The percentages of ssDNA at various distances (364nt, 1754nt and 3564nt) were measured by qPCR. f-h) Control and USP25 knockdown RKO cells transfected short interfering RNAs (siRNA) against SHLD2 were subjected to survival assays for CCK8 assay in response to IR (0, 1,1.5,2,2.5,3Gy), 5-Fu (0, 0.1,0.5,1,3µM) or cisplatin(0, 0.1,0.5,1,2,5µM). Statistical analysis was performed using two-way ANOVA followed by a Turkey’s multiple comparison test (b,c,e,f,g,h) .

[3] = system: USP25 and MDC1 BRCT-domain / FHA-domain; assay: GST pull-down of USP25 with MDC1 deletions after 5-Fu; assay type: cell-based, human; details: 5-Fu (20 uM), HEK293T lysates
Method: Figure 4 Regulation of the DDR signaling by USP25. a) HEK293T cells were left untreated or treated with IR (10 Gy) or 5‐Fu (20 uM). USP25 was immunoprecipitated and immunoblotted with phospho‐SQ/TQ (p‐SQ/TQ). b) HEK293T cells were pretreated with Ku55933 (25 µM) for 2 h followed by treatment with IR(10 Gy). After 1 h, USP25 was immunoprecipitated, left untreated, or treated with phosphatase and immunoblotted with p‐SQ/TQ. c) HEK293T cells transfected with USP25^WT and indicated constructs were left treated with IR(10 Gy). USP25 was immunoprecipitated and immunoblotted with p‐SQ/TQ. d) USP25 knockdowm U2OS cells rescued with USP25WT or USP25T523A were treated with IR (2 Gy), and co‐localization USP25 with γH2AX was detected by immunofluorescence. n>80 in each group. e) HEK293T cells were left untreated or treated with 5‐Fu (20 uM). […] The interaction USP25 and MDC1 deletions was detected. g) HEK293T cells transfected with USP25^WT or USP25^T523A were treated with IR, and cell lysates were incubated with GST or GST‐MDC1‐BRCT in vitro. The interaction USP25 and MDC1‐BRCT was detected. h) Non‐phosphorylated or phosphorylated Thr523 peptide was conjugated to beads and incubated with purified GST‐MDC1‐BRCT domain in buffer. […]

[4] = system: RKO and SW620 cells; assay: CCK8 survival assay, USP25 knockdown USP25-high colon cancer cells; assay type: cell-based; details: RKO: cisplatin (0, 0.5, 1, 3 µM), 5-Fu (0, 0.1, 0.5, 1, 3 µM), SW620: 5-Fu (0, 0.1, 0.5, 1, 3 µM), 72 h
Method: For long-term proliferation, cells were seeded in triplicate in each well of 96-well plates at a density of 1000 cells per well. After 24 h of culture, the cells were treated with the indicated doses of regents or peptides and incubated at 37 °C for 72 h. Subsequently, the medium was changed to a fresh medium containing cell counting kit-8 solution (Dojindo, CK04), and the cells were placed in the incubator for an additional 1-2 h. […] a) The mRNA expression levels of TRIM25, HECTD3, NEDD4L and WWP2 in human normal colon tissue samples (n=41) and colorectal adenocarcinoma tissue samples (n=286 COAD patients) from the Ualcan database were analyzed. b) The protein expression levels of USP25 were measured in HEK293T cells that stably expressed TRIM25 shRNA. c) NHEJ repair capacity of control or TRIM25 knockdown cells were subjected using a reporter assay. d-g) Immunoblot of USP25 in the RKO cells stably expressing control and USP25 shRNA. […] Statistical analysis was performed using t-test (a) or one-way ANOVA followed by a Turkey's multiple comparison test (c) or two-way ANOVA followed by a Turkey's multiple comparison test ([…]) .

With `O=c1[nH]cc(F)c(=O)[nH]1` [5‐Fu, 5‐fluorouracil] the “USP25-MDC1 interaction after treatment” value [1] was “increased following 5‐Fu or IR treatment”, the “sensitization by USP25 knockdown” value ([2]; Figure S2f-h) was “sensitized cells to IR, 5‐Fu, and cisplatin treatment” and the “sensitization by USP25 knockdown in SHLD2-depleted cells” value ([2]; SHLD2 siRNA) was “didn't further lead cells to sensitize to these treatments”. The “interaction of MDC1 domains with USP25 after treatment” value [3] was “MDC1 BRCT‐domain but not FHA‐domain interacted with USP25” and the “sensitization by USP25 knockdown, USP25-high cell lines” value [4] was “sensitized the cells to IR, cisplatin, and 5‐Fu treatment”.
